# Measurements: patent publication US9783537B2, “3-(4-ethylnylphenyl) pyridopyrimidinone compounds and process for preparation thereof useful as potential anticancer agents” (Council of Scientific & Industrial Research, priority 2013, dated 2017)
# Read-outs that look alike come from different tables or passages of the source.
# Key:
# [1] = test system: NCI-H226; assay: SRB 48 h growth assay, Non-small Cell Lung NCI-H226; assay type: cell-based, human
# [2] = test system: RPMI-8226; assay: SRB 48 h growth assay, Leukemia RPMI-8226; assay type: cell-based, human; settings: RPMI-8226, Leukemia
# [3] = test system: seven colon cancer cell line (COLO 205, HCC-2998, HCT-116, HCT-15, HT29, KM12 and SW-620); assay: in vitro anticancer activity, colon panel; assay type: cell-based; settings: Homo sapiens; seven colon cancer cell lines, exposure at least 48 h; read-out: GI50, range over panel
# [4] = test system: K-562; assay: SRB 48 h growth assay, Leukemia K-562; assay type: cell-based, human
# [5] = test system: SK-MEL-5; assay: SRB 48 h growth assay, Melanoma SK-MEL-5; assay type: cell-based, human; settings: SK-MEL-5, Melanoma
# [6] = test system: OVCAR-4; assay: SRB 48 h growth assay, Ovarian OVCAR-4; assay type: cell-based, human; settings: OVCAR-4, Ovarian
# [7] = test system: PC-3; assay: SRB 48 h growth assay, Prostate PC-3; assay type: cell-based, human; settings: PC-3, Prostate
# [8] = test system: HOP-92; assay: SRB 48 h growth assay, Non-small Cell Lung HOP-92; assay type: cell-based, human; settings: Homo sapiens, HOP-92, Non-small Cell Lung
# [9] = test system: UACC-62; assay: SRB 48 h growth assay, Melanoma UACC-62; assay type: cell-based, human; settings: UACC-62, Melanoma
# [10] = in vitro anticancer activity, melanoma panel; assay type: cell-based; settings: Homo sapiens; nine melanoma cell lines, exposure at least 48 h; read-out: GI50, range over panel
# [11] = test system: HCT-116; assay: SRB 48 h growth assay, Colon HCT-116; assay type: cell-based, human; settings: HCT-116, Colon
# [12] = test system: SK-OV-3; assay: SRB 48 h growth assay, Ovarian SK-OV-3; assay type: cell-based, human; settings: SK-OV-3, Ovarian
# [13] = test system: A549/ATCC; assay: SRB 48 h growth assay, Non-small Cell Lung A549/ATCC; assay type: cell-based, human
# [14] = test system: NCI-H522; assay: SRB 48 h growth assay, Non-small Cell Lung NCI-H522; assay type: cell-based, human
# [15] = test system: OVCAR-3; assay: SRB 48 h growth assay, Ovarian OVCAR-3; assay type: cell-based, human; settings: OVCAR-3, Ovarian
# [16] = test system: CCRF-CEM; assay: SRB 48 h growth assay, Leukemia CCRF-CEM; assay type: cell-based, human
# [17] = test system: TK-10; assay: SRB 48 h growth assay, Renal TK-10; assay type: cell-based, human; settings: TK-10, Renal
# [18] = test system: MDA-MB-231/ATCC; assay: SRB 48 h growth assay, Breast MDA-MB-231/ATCC; assay type: cell-based, human
# [19] = test system: M14; assay: SRB 48 h growth assay, Melanoma M14; assay type: cell-based, human
# [20] = test system: 786-0; assay: SRB 48 h growth assay, Renal 786-0; assay type: cell-based, human; settings: 786-0, Renal
# [21] = test system: seven ovarian cancer cell lines (IGROV1, OVCAR-3, OVCAR-4, OVCAR-5, OVCAR-8, NCI/ADR-RES and SK-OV-3); assay: in vitro anticancer activity, ovarian panel; assay type: cell-based; settings: Homo sapiens, exposure at least 48 h, read-out: GI50, range over panel
# [22] = test system: UACC-257; assay: SRB 48 h growth assay, Melanoma UACC-257; assay type: cell-based, human; settings: UACC-257, Melanoma
# [23] = test system: six CNS cancer cell line (SF-268, SF-295, SF-539, SNB-19, SNB-75 and U251); assay: in vitro anticancer activity, CNS panel; assay type: cell-based; settings: Homo sapiens; six CNS cancer cell lines, exposure at least 48 h; read-out: GI50, range over panel
# [24] = test system: NCI/ADR-RES; assay: SRB 48 h growth assay, Ovarian NCI/ADR-RES; assay type: cell-based, human
# [25] = test system: SNB-75; assay: SRB 48 h growth assay, CNS SNB-75; assay type: cell-based, human; settings: SNB-75, CNS
# [26] = test system: OVCAR-8; assay: SRB 48 h growth assay, Ovarian OVCAR-8; assay type: cell-based, human; settings: OVCAR-8, Ovarian
# [27] = Homo sapiens, read-out: Growth Inhibition GI50
# [28] = Homo sapiens, read-out: Log10 GI50 (converted)
# [29] = Homo sapiens, read-out: Log10 LC50 (converted)
smiles,measurement,setting,value
"C#Cc1ccc(-n2c(/C=C/c3ccc(C(F)(F)F)cc3)nc3ncccc3c2=O)cc1 [4c, (E)-3-(4-Ethynylphenyl)-2-(4-(trifluoromethyl)styryl)pyrido[2,3-d]pyrimidin-4(3H)-one]",Log10 TGI50,[1],−5.39
same,GI50,[1]; [27],1990 nM
same,GI50,[1]; [28],2000 nM
same,LC50,[1]; [29],8.51 µM
same,GI50,[2]; [27],1390 nM
same,GI50,[2]; [28],1380 nM
same,CC50,[2]; [29],> 100 µM
same,Log10 TGI50,[2],−5.20
same,GI50,[3],2060 to 3260 nM
same,GI50,"[4]; Homo sapiens, K562, K-562, Leukemia, read-out: Growth Inhibition GI50",2960 nM
same,GI50,"[4]; Homo sapiens, K562, K-562, Leukemia, read-out: Log10 GI50 (converted)",2950 nM
same,CC50,"[4]; Homo sapiens, K562, K-562, Leukemia, read-out: Log10 LC50 (converted)",> 100 µM
same,Log10 TGI50,"[4]; K-562, Leukemia",−5.06
same,GI50,[5]; [27],1490 nM
same,GI50,[5]; [28],1480 nM
same,CC50,[5]; [29],5.5 µM
same,Log10 TGI50,[5],−5.54
same,GI50,[6]; [27],1580 nM
same,GI50,[6]; [28],479 nM
same,CC50,[6]; [29],6.92 µM
same,Log10 TGI50,[6],−5.48
same,GI50,[7]; [27],1960 nM
same,GI50,[7]; [28],1950 nM
same,CC50,[7]; [29],> 100 µM
same,Log10 TGI50,[7],−5.20
same,GI50,[8]; read-out: Growth Inhibition GI50,1320 nM
same,GI50,[8]; read-out: Log10 GI50 (converted),1320 nM
same,CC50,[8]; read-out: Log10 LC50 (converted),8.91 µM
same,GI50,[9]; [27],1620 nM
same,GI50,[9]; [28],1620 nM
same,CC50,[9]; [29],7.94 µM
same,Log10 TGI50,[9],−5.44
same,GI50,[10],510 to 4970 nM
same,Log10 TGI50,[11],−5.52
same,GI50,[11]; [27],1640 nM
same,GI50,[11]; [28],1620 nM
same,CC50,[11]; [29],5.62 µM
same,GI50,[12]; [27],3.61 µM
same,GI50,[12]; [28],3.63 µM
same,CC50,[12]; [29],53.7 µM
same,Log10 TGI50,[12],−4.87
same,Log10 TGI50,[13],−5.34
same,GI50,[13]; [27],1830 nM
same,GI50,[13]; [28],1820 nM
same,CC50,[13]; [29],> 100 µM
same,Log10 TGI50,[14],−5.51
same,GI50,[14]; [27],1650 nM
same,GI50,[14]; [28],1660 nM
same,CC50,[14]; [29],5.75 µM
same,GI50,[15]; [27],1670 nM
same,GI50,[15]; [28],1660 nM
same,CC50,[15]; [29],6.03 µM
same,Log10 TGI50,[15],−5.50
same,Log10 TGI50,[16],>−4.00
same,CC50,"[16]; Homo sapiens, CCKF-CEM, read-out: Log10 LC50 (converted)",> 100 µM
same,GI50,[16]; [27],1950 nM
same,GI50,[16]; [28],1950 nM
same,GI50,[17]; [27],2190 nM
same,GI50,[17]; [28],2190 nM
same,CC50,[17]; [29],6.31 µM
same,Log10 TGI50,[17],−5.43
same,Log10 TGI50,[18],−5.26
same,GI50,[18]; [27],2050 nM
same,GI50,[18]; [28],2040 nM
same,CC50,[18]; [29],60.3 µM
same,Log10 TGI50,[19],−5.37
same,GI50,[19]; [27],2070 nM
same,GI50,[19]; [28],2090 nM
same,CC50,[19]; [29],8.71 µM
same,Log10 TGI50,[20],−5.43
same,GI50,[20]; [27],2060 nM
same,GI50,[20]; [28],2040 nM
same,CC50,[20]; [29],6.61 µM
same,GI50,[21],1.95 to 7.55 µM
same,GI50,[22]; [27],1560 nM
same,GI50,[22]; [28],1550 nM
same,CC50,[22]; [29],5.62 µM
same,Log10 TGI50,[22],−5.53
same,GI50,[23],2.6 to 3.69 µM
same,Log10 TGI50,[24],−5.16
same,GI50,[24]; [27],2500 nM
same,GI50,[24]; [28],2510 nM
same,CC50,[24]; [29],> 100 µM
same,GI50,[25]; [27],1810 nM
same,GI50,[25]; [28],1820 nM
same,CC50,[25]; [29],28.2 µM
same,Log10 TGI50,[25],−5.14
same,GI50,[26]; [27],1870 nM
same,GI50,[26]; [28],1860 nM
same,CC50,[26]; [29],31.6 µM
same,Log10 TGI50,[26],−5.33
